How the values were obtained:
MKN-45 = assay: Cytotoxicity against human MKN-45 cells assessed as inhibition of cell growth at 20 uM incubated for 48 hrs by MTT assay; type: toxicity, cell-based; settings: mkn-45, 48 h
MCF7 = assay: Cytotoxicity against human MCF7 cells assessed as inhibition of cell growth at 20 uM incubated for 48 hrs by MTT assay; type: toxicity, cell-based; settings: mcf7, 48 h
5637 = assay: Cytotoxicity against human 5637 cells assessed as inhibition of cell growth at 20 uM incubated for 48 hrs by MTT assay; type: toxicity, cell-based; settings: human, 5637, 48 h
K562 = assay: Cytotoxicity against human K562 cells assessed as inhibition of cell growth at 20 uM incubated for 48 hrs by MTT assay; type: toxicity, cell-based; settings: k562, 48 h
A549 = assay: Cytotoxicity against human A549 cells assessed as inhibition of cell growth at 20 uM incubated for 48 hrs by MTT assay; type: toxicity, cell-based; settings: a549, 48 h
CAL-62 = assay: Cytotoxicity against human CAL-62 cells assessed as inhibition of cell growth at 20 uM incubated for 48 hrs by MTT assay; type: toxicity, cell-based; settings: cal-62, 48 h
HeLa = assay: Cytotoxicity against human HeLa cells assessed as inhibition of cell growth at 20 uM incubated for 48 hrs by MTT assay; type: toxicity, cell-based
HepG2 = assay: Cytotoxicity against human HepG2 cells assessed as inhibition of cell growth at 20 uM incubated for 48 hrs by MTT assay; type: toxicity, cell-based; settings: hepg2, 48 h
RAW264.7 [1] = assay: Cytotoxicity against mouse RAW264.7 cells assessed as inhibition of cell growth at 30 uM; type: toxicity, cell-based; settings: raw264.7, 30 µM
HCT-116 = assay: Cytotoxicity against human HCT-116 cells assessed as inhibition of cell growth at 20 uM incubated for 48 hrs by MTT assay; type: toxicity, cell-based; settings: hct-116, 48 h
RAW264.7 [2] = assay: Antiinflammatory activity in mouse RAW264.7 cells assessed as inhibition of LPS-induced NO production preincubated with compound for 30 mins followed by LPS-stimulation and measured after 24 hrs by Griess assay; type: functional, cell-based

Compound | IC50 (RAW264.7 [2]) [µM] | Activity (MKN-45) | Activity (MCF7) | Activity 5637 | Activity (K562) | Activity (A549) | Activity (CAL-62) | Activity (HeLa) | Activity (HepG2) | Activity (RAW264.7 [1]) | Activity (HCT-116)
CC(=O)OC[C@@]1(C)CCC[C@]2(COC(C)=O)C3=C(C[C@@H](OC(=O)c4cccnc4)[C@@H]12)C(=O)OC3 | 19 | Non-Toxic | Non-Toxic | Non-Toxic | Non-Toxic | Non-Toxic | Non-Toxic | Non-Toxic | Non-Toxic | Non-Toxic | Non-Toxic
C[C@]1(CO)CCC[C@]2(CO)C3=C(CC[C@@H]12)C(=O)OC3 | 21 | Non-Toxic | Non-Toxic | Non-Toxic | Non-Toxic | Non-Toxic | Non-Toxic | Non-Toxic | Non-Toxic | Non-Toxic | Non-Toxic
CC(=O)OC[C@]12CCCC(C)(C)[C@@H]1[C@H](OC(=O)c1ccccc1)CC1=C2COC1=O | 6.8 | Non-Toxic | Non-Toxic | Non-Toxic | Non-Toxic | Non-Toxic | Non-Toxic | Non-Toxic | Non-Toxic | Non-Toxic | Non-Toxic
CC12CCCC34C5=C(CC(O[C@@H]3OC1)C24)C(=O)OC5 | 22 | Non-Toxic | Non-Toxic | Non-Toxic | Non-Toxic | Non-Toxic | Non-Toxic | Non-Toxic | Non-Toxic | Non-Toxic | Non-Toxic

Now those with a lower IC50 (RAW264.7 [2]), led by results:

IC50 (RAW264.7 [2]) [µM] | Compound | Activity (MKN-45) | Activity (MCF7) | Activity 5637 | Activity (K562) | Activity (A549) | Activity (CAL-62) | Activity (HeLa) | Activity (HepG2) | Activity (RAW264.7 [1]) | Activity (HCT-116)
6.1 | C[C@]1(CO)CC[C@@H](O)[C@]2(C)C3=C(CC[C@@H]12)C(=O)OC3 | Non-Toxic | Non-Toxic | Non-Toxic | Non-Toxic | Non-Toxic | Non-Toxic | Non-Toxic | Non-Toxic | Non-Toxic | Non-Toxic
2.6 | C[C@@H]1C[C@H]2[C@@H]3CCC4=CC(=O)C=C[C@]4(C)[C@@]3(F)[C@@H](O)C[C@]2(C)[C@@]1(O)C(=O)CO [DEXAMETHASONE] |  |  |  |  |  |  |  |  |  | 

Reference: ChEMBL document CHEMBL5360594, “Astellolides R-W, Drimane-Type Sesquiterpenoids from an Aspergillus parasiticus Strain Associated with an Isopod” (J Nat Prod, 2023)
